Measured values reported in publication PMC7277860, “Viridistratins A−C, Antimicrobial and Cytotoxic Benzo[j]fluoranthenes from Stromata of Annulohypoxylon viridistratum (Hypoxylaceae, Ascomycota)” (Biomolecules, 2020).
Converted amounts (≈) assume the structure as drawn.

Tests used:
Pseudomonas aeruginosa = assay: MIC serial dilution assay; type: cell-based; conditions: Pseudomonas aeruginosa PA14; overnight, 37 °C; reference gentamicin 0.1 mg/mL; read-out: Minimum Inhibitory Concentration (MIC)
Experimental: (§1) Compounds 1, 2, 4 and 5 were dissolved in MeOH (1 mg/mL) for the antimicrobial activity assay, while compound 3 was dissolved in MeOH: DMSO 9+1 (1 mg/mL). The solvents were also used as negative controls.
(§2) Minimum inhibitory concentrations (MIC) were determined in a serial dilution assay, as described previously; a detailed protocol can be found in the Supporting Information. The compounds (1 mg/mL) were diluted to a range of 66.7 to 0.52 µg/mL and incubated with the test organisms overnight. Inhibition of growth was visually evaluated the next day: the MIC is defined as the lowest concentration of the test compound where no growth of the test organism was observed. Various test organisms of fungal and bacterial origin were tested to cover a broad range of microorganisms. This selection is also being used as a standard test panel in our attempts to discover new anti-infectives, as it represents a broad spectrum of pathogens of clinical interest, as well as sensitive indicator strains (bacteria: Bacillus subtilis, Staphylococcus aureus, Micrococcus luteus, Chromobacterium violaceum, Escherichia coli and Pseudomonas aeruginosa; mycobacteria: Mycolicibacterium smegmatis and fungi: Candida albicans, Schizosaccharomyces pombe, Mucor hiemalis, Pichia anomala and Rhodotorula glutinis).
(§3) Protocol: Antimicrobial Activi ty Assay
(§4) The assay was conducted as a minimum inhi bitory concentration (MIC) assay in 96-well ro und-bottom mi crotiter pl ate s usi ng the p ar ameter s su mm ari zed i n T a bl e S 1 and as already described i n [S1].
(§5) Stocks of the test organi sms were generated by growing the organisms o ver ni ght i n 50 mL shaki ng fl asks fi ll ed wi th 25 mL of the growth medi um at 140 rpm (for media and temperatures see Table S1). If the organisms were well grown the ne xt day, which was checked by occurrence of an optical density (OD)>30 of the suspension (OD600 nm for bacteria, OD548 nm for fungi and M. smegma tis) , aliquots of these were stored i n 1.5 mL reaction tube s in a freezer at −80 °C for up to 12 mo nths . Upon use, aliquots were unth awed and the OD of the suspension measured and adjusted by diluting with the respective growth medi um. OD600 nm w as adj usted to 0.01 and OD548 nm to 0.1.
(§6) Subse que ntly, 150 µL o f the adjusted suspensions were added to all wells of a 96-wel l microtiter pl ate (one test organi sm per plate). In row A, additional 130 µL of suspensions plus 20 µL of the test compounds (1 mg/mL) and the controls (one compound/column) were added. MeOH as well as MeOH:DMSO 9+1 were used as negative controls, while different positive controls (refer ences) were used for the test organisms (see Tabl e S1). Then, starti ng from row A, 150 µ L of the suspension were transferred to the next row, the contents thoroughly mixed, and 150 µ L transferred to the following row.
(§7) The remaining 150 µ L after row H were discarded. […]
(§8) compounds, ranging from 66.7 µg/mL i n row A to 0.52 µg/mL i n row H.
(§9) The microtiter plates were then incubated overnight o n a microplate shaker at 800 rpm at 30 or 37 °C (see Table S1) and were visually evaluated the next day. The MIC is defined as the lowest concentration were no growth of the test organism was o bserved. A lower MIC thus corresponds to a higher antimicrobial activity of the test compound.
(§10) Table S1: MIC assay ex per i men t parameters test organism strain No. growth incubation positive control (reference) […]
Pseudomonas a erugi nosa PA14 MHB 1 37 gent amici n 0.1 mg/mL […]
(§11) Rhodotorula glutinis DSM10134 MYC 3 30 nyst ati n 1.0 mg/mL
(§12) 1 MHB: Müller-Hinton Broth (SN X927.1, Ca r l Roth GmbH, Karlsruhe, Germany) 2 7H9+ADC: Middlebrook 7H9 Broth Base + Middlebrook ADC Growth Supplement (SN M0678+M0553, Merck, Darmstadt, Germany)
(§13) 3 MYC: 1 % w/v, bacto peptone, 1% w/v yeast extract, 2 % w /v glycerol, pH 6.3 [S1] Helaly, S.E.; Ashrafi, S.; Teponno, R.B.; Bernecker, S.; Dababat, A.A.; Maier, W.; Stadler, M.
(§14) Nematicidal Cyclic Lipodepsipeptides and a Xanthocillin Derivative from a Phaeosphariaceous […]

Bacillus subtilis = assay: MIC serial dilution assay; type: cell-based; conditions: Bacillus subtilis DSM10; overnight, 30 °C; reference oxytetracycline 1 mg/mL; read-out: Minimum Inhibitory Concentration (MIC)
Experimental: as §1, §2, §3, §4, §5, §6, §7, §8, §9, §10
Bacillus subtilis DSM10 MHB 1 30 oxytetr acyclin 1.0 mg/mL […]
as §11, §12, §13, §14

Staphylococcus aureus = assay: MIC serial dilution assay; type: cell-based; conditions: Staphylococcus aureus DSM346; overnight, 30 °C; reference oxytetracycline 0.1 mg/mL; read-out: Minimum Inhibitory Concentration (MIC)
Experimental: as §1, §2, §3, §4, §5, §6, §7, §8, §9, §10
Staphylococcus aureus DSM346 MHB 1 30 oxytetr acyclin 0.1 mg/mL […]
as §11, §12, §13, §14

Micrococcus luteus = assay: MIC serial dilution assay; type: cell-based; conditions: Micrococcus luteus, DSM1790, Micrococcus luteus DSM1790; overnight, 30 °C; reference oxytetracycline 0.1 mg/mL; read-out: Minimum Inhibitory Concentration (MIC)
Experimental: as §1, §2, §3, §4, §5, §6, §7, §8, §9, §10
Micrococcus luteu s DSM1790 MHB 1 30 oxytetr acyclin 0.1 mg/mL […]
as §11, §12, §13, §14

[1] = test system: Chromobacterium violaceum; assay: MIC serial dilution assay; type: cell-based; conditions: Chromobacterium violaceum DSM30191; overnight, 30 °C; reference oxytetracycline 0.1 mg/mL; read-out: Minimum Inhibitory Concentration (MIC)
Experimental: as §1, §2, §3, §4, §5, §6, §7, §8, §9, §10
Chromobacterium DSM30191 MHB 1 30 oxytetr acyclin 0.1 mg/mL […]
as §11, §12, §13, §14

Escherichia coli = assay: MIC serial dilution assay; type: cell-based; conditions: Escherichia coli DSM1116; overnight, 37 °C; reference oxytetracycline 0.1 mg/mL; read-out: Minimum Inhibitory Concentration (MIC)
Experimental: as §1, §2, §3, §4, §5, §6, §7, §8, §9, §10
Escherichia coli DSM1116 MHB 1 37 oxytetr acyclin 0.1 mg/mL […]
as §11, §12, §13, §14

Cytotoxicity assay (MTT) [2] = type: cell-based
Experimental: (§15) Compounds 1−5 were dissolved as described in the previous section. The cytotoxicity assay was initially performed against the cell lines L929 (mouse fibroblasts), as well as KB 3.1 (human papillomavirus-related endocervical adenocarcinoma), as described previously. A detailed protocol, as well as sources of the cell lines, is given in the Supporting Information.
(§16) After incubating the cell lines with a serial dilution of the test compounds (final range: 37 to 0.6 × 10^−3 µg/mL) for five days, the cells were dyed using 3-(4,5-dimethyl-2-thiazolyl)-2,5-diphenyl-2H-tetrazolium bromide (MTT), which is only converted to its purple formazan derivative by living cells. Then, the intensity of the purple derivative in relation to cells without additive (set to 100% viability) for each concentration of a test compound was quantified. For this, the absorption at 595 nm was measured using a microplate reader to calculate the percentage of cell viability. From this, the half-maximum inhibitory concentration (IC50, in µM) was calculated.
(§17) Protocol: Cytotoxicity Assay
(§18) The ass ay w as co nducted i n 9 6-well flat-bottom mi crotiter plates using the parameters summarised i n Tabl e S 2 and as described in [S2].
(§19) Cell lines L929 and KB 3.1 were incubated at 37 °C under 10 % CO2 in Gibco™ DMEM medium (Thermo Fisher Scientific, Waltham, MA, USA) supplemented with 10 % FBS. A microtiter plate was filled with 120 µL of this suspension (50,000/mL) in each well.
(§20) Seperately, another microtiter plate was filled with 100 µL of growth medium in each well. Then, 50 µL of the test compound sol utions (1 mg/mL) were given to wells of the first column in two replicates (one compound per row). C ell s wi thout addi ti ves, Me O H, and MeOH: DMSO 9+1 were used as negative controls. Starting from the first column, 50 µL of the solutions were gradually transferred to the ne xt col umn, the conte nts thoroughl y mi xed, and 50 µ L transferred to the following column. This created a serial dilution of the test compounds r anging from 333 µg/mL to 1.9 ×10−3 µg/mL. The remai ni ng 50 µL after column twelve were discarded. From this microtiter plate, 60 µL of the sol utions from 111 µg/ mL to 1.9×10−3 µg/mL were given to the first plate containing 120 µL of the cel l suspens i ons (i.e. the hi ghest concentrati on 333 µg/mL was not used). T his resulted i n fi nal compound concent rati ons rangi ng from […]
(§21) After 5 days of incubation under the aforeme ntioned i ncubati on condi ti ons, the half maximum inhibitory concentrati ons (IC 50) were determined using a colorimetric tetrazolium dye MTT assay [S3].
(§22) For this, 20 µL of a 5 mg/mL solution of 3-( 4 ,5 -dimethyl-2-thi azo l yl)-2 ,5 -di phenyl -2H-tetrazolium bromide (MTT) w ere added to each well and incubated for two hours at 37 °C. Then, the microtiter plate was centrifuged (3,000 r p m, 5 mi n) and the supernat ant remo ved by ho l di ng the pl ate upsi de-do wn and gentle shaking. Afterwards, the wells were washed using 100 µL of phosph ate buffered saline (PBS).
(§23) The plate was again centrifuged and the supernatant removed as described before. Then, 100 µL of an isopropanol:HCl solution (1L i sopropanol+4 mL HCl 37 % w/v) were added to the wells. After i ncubati ng fo r 10 mi n at ambi ent te mperature, the a bso r pti o n of the well s at 595 nm was measured wi th an I nfi ni te ® 200 Pro microplate reader (TECAN, Männedorf, Schweiz).
(§24) The absorption values of the cells without additives were averaged and set to 100 % cell viability.
(§25) Then, t he me ans of absorption of the two compound replicates were set in relation to the blank media.
These percentage values were plotted a gainst the concentration range (37 µg/mL to 0.6×10 −3 µg/mL).
The IC50 val ue w as read from the plot ( i n µg/mL) and the uni ts conversed to µM.
If effects were observed wi th cell lines L929 and KB 3.1 (IC50 < 50 µM), the other cell lines were tested using the same protocol.
Table S2: Cytotoxicity assay experiment parameters cell line type No. growth medium […]

Cytotoxicity assay (MTT) [3] = type: cell-based, human
Experimental: as §15, §16
If an inhibition of cell viability with an IC50 < 50 µM was observed, further cell lines were subjected to the test compounds: PC-3 (human prostate adenocarcinoma), SK-OV-3 (human ovary adenocarcinoma), MCF-7 (human breast adenocarcinoma), A431 (human squamous carcinoma) and A549 (human lung carcinoma).
as §17, §18, §19, §20, §21, §22, §23, §24, §25
These percentage values were plotted a gainst the concentration range (37 µg/mL to 0.6×10 −3 µg/mL). […]

`CNC(C)C1CCC(N)C(OC2C(N)CC(N)C(OC3OCC(C)(O)C(NC)C3O)C2O)O1` (stereo not shown) [gentamicin, reference compound] showed an MIC (Pseudomonas aeruginosa) of 0.4 µg/mL (≈ 0.838 µM).

With `CN(C)[C@@H]1C(O)=C(C(N)=O)C(=O)[C@@]2(O)C(O)=C3C(=O)c4c(O)cccc4[C@@](C)(O)[C@H]3[C@H](O)[C@@H]12` [oxytetracycline, reference compound] the MIC (Bacillus subtilis) was 8.3 µg/mL (≈ 18 µM), the MIC (Staphylococcus aureus) was 0.4 µg/mL (≈ 0.869 µM) and the MIC (Micrococcus luteus) was 0.8 µg/mL (≈ 1.74 µM). It also gave an MIC [1] of 0.1 µg/mL (≈ 0.217 µM) and an MIC (Escherichia coli) of 1.7 µg/mL (≈ 3.69 µM).

`C/C(=C\c1csc(C)n1)[C@@H]1C[C@@H]2O[C@]2(C)CCC[C@H](C)[C@H](O)[C@@H](C)C(=O)C(C)(C)[C@@H](O)CC(=O)O1` [epothilone B, reference compound] showed an IC50 at 5 days (Cytotoxicity assay (MTT) [2]; KB 3.1 human endocervical adenocarcinoma) of 0.79 nM, an IC50 at 5 days (Cytotoxicity assay (MTT) [2]; L929 mouse fibroblasts) of 0.06 nM and an IC50 at 5 days (Cytotoxicity assay (MTT) [3]; A431 human squamous AC) of 0.05 nM. It also gave an IC50 at 5 days (Cytotoxicity assay (MTT) [3]; A549 human lung carcinoma) of 0.08 nM, an IC50 at 5 days (Cytotoxicity assay (MTT) [3]; MCF-7 human breast AC) of 0.12 nM and an IC50 at 5 days (Cytotoxicity assay (MTT) [3]; PC-3 human prostate AC) of 0.08 nM. The IC50 at 5 days (Cytotoxicity assay (MTT) [3]; SK-OV-3 human ovary AC) was 0.34 nM.
